From PubChem BioAssay AID248 (DTP/NCI, 2004)
Values joined by “and” are separate entries in the source; they are usually repeats but may differ in a detail not shown here. Identical values can stand only once. Inconclusive results and toxic doses are left out.

Tested on: L1210 leukemia ip in BDF1 mice, survival T/C
Assay: NCI In Vivo Anticancer Drug Screen. Data for tumor model L1210 Leukemia (intraperitoneal) in B6D2F1 (BDF1) mice
Details: endpoint: mean survival time, higher = longer survival
How it was run: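 Each compound was tested against a transplantable tumor grown in mice. The endpoint was survival, with treated animals benchmarked against vehicle controls as a simple ratio.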

[1] = dose: 75.0 mg/kg/injection, schedule: Q01DX001 (ip), vehicle: saline
[2] = dose: 100.0 mg/kg/injection, schedule: Q01DX001 (ip), vehicle: Klucel (hydroxypropylcellulose) (HPC)
[3] = dose: 200.0 mg/kg/injection, schedule: Q01DX001 (ip), vehicle: Klucel (hydroxypropylcellulose) (HPC)
[4] = dose: 400.0 mg/kg/injection, schedule: Q01DX001 (ip), vehicle: Klucel (hydroxypropylcellulose) (HPC)
[5] = dose: 100.0 mg/kg/injection, schedule: Q04DX003 (ip), vehicle: Klucel (hydroxypropylcellulose) (HPC)
[6] = dose: 200.0 mg/kg/injection, schedule: Q04DX003 (ip), vehicle: Klucel (hydroxypropylcellulose) (HPC)
[7] = dose: 100.0 mg/kg/injection, schedule: Q01DX009 (ip), vehicle: saline
[8] = dose: 100.0 mg/kg/injection, schedule: Q04DX003 (ip), vehicle: saline
[9] = dose: 200.0 mg/kg/injection, schedule: Q01DX009 (ip), vehicle: saline
[10] = dose: 200.0 mg/kg/injection, schedule: Q04DX003 (ip), vehicle: saline
[11] = dose: 400.0 mg/kg/injection, schedule: Q01DX009 (ip), vehicle: saline
[12] = dose: 100.0 mg/kg/injection, schedule: Q04DX003 (ip), vehicle: saline with Tween-80
[13] = dose: 200.0 mg/kg/injection, schedule: Q04DX003 (ip), vehicle: saline with Tween-80
[14] = dose: 400.0 mg/kg/injection, schedule: Q04DX003 (ip), vehicle: saline with Tween-80
[15] = dose: 100.0 mg/kg/injection, schedule: Q04DX002 (ip), vehicle: Klucel (hydroxypropylcellulose) (HPC)
[16] = dose: 200.0 mg/kg/injection, schedule: Q04DX002 (ip), vehicle: Klucel (hydroxypropylcellulose) (HPC)
[17] = dose: 400.0 mg/kg/injection, schedule: Q04DX002 (ip), vehicle: Klucel (hydroxypropylcellulose) (HPC)
[18] = dose: 400.0 mg/kg/injection, schedule: Q04DX003 (ip), vehicle: saline

Compound: ClCC[N+]12CC[N+](CCCl)(CC1)C2
- T/C [1]: 105 % of control
- T/C (dose: 150.0 mg/kg/injection, schedule: Q01DX001 (ip), vehicle: saline): 120 % of control

Compound: N=C1C(=O)c2ccccc2-c2ccccc21
- T/C [2]: 97 % of control
- T/C [3]: 98 % of control
- T/C [4]: 98 % of control

Compound: O=C(Nc1ccc(F)cc1)Nc1cc([N+](=O)[O-])ccc1F
- T/C [5]: 117 % of control
- T/C [6]: 102 % of control
- T/C (dose: 400.0 mg/kg/injection, schedule: Q04DX003 (ip), vehicle: Klucel (hydroxypropylcellulose) (HPC)): 101 % of control

Compound: CCOC(=O)N1C=Cn2c(cnc2C)C1OCC (configuration not stated)
- T/C (dose: 50.0 mg/kg/injection, schedule: Q01DX009 (ip), vehicle: saline): 109 % of control
- T/C [7]: 100 % of control and 92 % of control
- T/C [8]: 91 % of control
- T/C [9]: 110 % of control and 90 % of control
- T/C [10]: 94 % of control
- T/C [11]: 92 % of control

Compound: CCC(C)NC(=O)/C=C/C(=O)NC(C)CC (configuration not stated)
- T/C [12]: 91 % of control
- T/C [13]: 100 % of control
- T/C [14]: 100 % of control

Compound: O=S(=O)(Nc1ccccc1)c1ccccc1C#Cc1ccccc1
- T/C (dose: 100.0 mg/kg/injection, schedule: Q01DX001 (ip), vehicle: steriod suspending solution): 105 % of control
- T/C (dose: 200.0 mg/kg/injection, schedule: Q01DX001 (ip), vehicle: steriod suspending solution): 100 % of control
- T/C (dose: 400.0 mg/kg/injection, schedule: Q01DX001 (ip), vehicle: steriod suspending solution): 97 % of control

Compound: NC(CSS(=O)(=O)O)=NCCCc1nc2ccccc2[nH]1
- T/C [15]: 106 % of control
- T/C [16]: 92 % of control
- T/C [17]: 95 % of control

Compound: CCOC(=O)C(=O)C(=O)OCC
- T/C (dose: 100.0 mg/kg/injection, schedule: Q04DX002 (ip), vehicle: saline with Tween-80): 101 % of control
- T/C (dose: 200.0 mg/kg/injection, schedule: Q04DX002 (ip), vehicle: saline with Tween-80): 107 % of control
- T/C (dose: 400.0 mg/kg/injection, schedule: Q04DX002 (ip), vehicle: saline with Tween-80): 88 % of control

Compound: NCCc1nc(C(=O)O)cs1
- T/C (dose: 100.0 mg/kg/injection, schedule: Q01DX001 (ip), vehicle: saline): 104 % of control
- T/C [7]: 86 % of control
- T/C [8]: 103 % of control
- T/C (dose: 200.0 mg/kg/injection, schedule: Q01DX001 (ip), vehicle: saline): 102 % of control
- T/C [9]: 97 % of control
- T/C [10]: 119 % of control
- T/C (dose: 400.0 mg/kg/injection, schedule: Q01DX001 (ip), vehicle: saline): 104 % of control
- T/C [11]: 86 % of control
- T/C [18]: 92 % of control

Compound: CN(C)N=Nc1ccc(CCC(=O)NN)cc1
- T/C (dose: 20.0 mg/kg/injection, schedule: Q01DX Z (ip), vehicle: saline): 111 % of control
- T/C (dose: 30.0 mg/kg/injection, schedule: Q01DX Z (ip), vehicle: saline): 114 % of control
- T/C (dose: 67.0 mg/kg/injection, schedule: Q01DX Z (ip), vehicle: saline): 91 % of control

Compound: CCCCCCCCCCCCCCCCCOc1ccc(I)cc1
- T/C [5]: 91 % of control
- T/C [6]: 91 % of control

Compound: COc1cc(C(=O)O)c(Cc2ccccc2)c(OC)c1O
- T/C (dose: 5.0 mg/kg/injection, schedule: Q01DX001 (ip), vehicle: saline): 95 % of control
- T/C (dose: 10.0 mg/kg/injection, schedule: Q01DX001 (ip), vehicle: saline): 97 % of control
- T/C (dose: 20.0 mg/kg/injection, schedule: Q01DX001 (ip), vehicle: saline): 95 % of control
- T/C (dose: 40.0 mg/kg/injection, schedule: Q01DX001 (ip), vehicle: saline): 95 % of control
- T/C (dose: 80.0 mg/kg/injection, schedule: Q01DX001 (ip), vehicle: saline): 95 % of control

Compound: Brc1ccc2c(c1)nc1n2CCC1
- T/C (dose: 100.0 mg/kg/injection, schedule: Q01DX001 (ip), vehicle: acetone): 105 % of control
- T/C [8]: 104 % of control
- T/C (dose: 200.0 mg/kg/injection, schedule: Q01DX001 (ip), vehicle: acetone): 108 % of control
- T/C [10]: 111 % of control
- T/C (dose: 400.0 mg/kg/injection, schedule: Q01DX001 (ip), vehicle: acetone): 94 % of control
- T/C [18]: 101 % of control

Compound: COC(=O)C1CC(=O)c2ccc(OC)cc21 (configuration not stated)
- T/C [2]: 102 % of control
- T/C [3]: 92 % of control
- T/C [4]: 100 % of control

Compound: CC(C)(C)C(=O)CC(=O)C(C)(C)C.CC(C)(C)C(=O)CC(=O)C(C)(C)C.[Zn]
- T/C [12]: 97 % of control
- T/C [13]: 95 % of control

Compound: CNC(=N)c1ccc(NC(=N)c2ccc(NC(=N)c3ccc(NC(=O)Nc4ccc(C#N)cc4)cc3)cc2)cc1
- T/C (dose: 3.25 mg/kg/injection, schedule: Q01DX015 (ip), vehicle: water): 119 % of control
- T/C (dose: 13.0 mg/kg/injection, schedule: Q01DX015 (ip), vehicle: water): 160 % of control
- T/C (dose: 17.0 mg/kg/injection, schedule: Q01DX Z (ip), vehicle: water): 152 % of control
- T/C (dose: 26.0 mg/kg/injection, schedule: Q01DX015 (ip), vehicle: water): 205 % of control
- T/C (dose: 30.0 mg/kg/injection, schedule: Q01DX001 (ip), vehicle: water): 112 % of control
- T/C (dose: 32.5 mg/kg/injection, schedule: Q01DX001 (ip), vehicle: water): 180 % of control
- T/C (dose: 34.0 mg/kg/injection, schedule: Q01DX Z (ip), vehicle: water): 153 % of control
- T/C (dose: 50.0 mg/kg/injection, schedule: Q01DX001 (ip), vehicle: water): 151 % of control
- T/C (dose: 65.0 mg/kg/injection, schedule: Q01DX001 (ip), vehicle: water): 165 % of control and 210 % of control and 228 % of control
- T/C (dose: 97.0 mg/kg/injection, schedule: Q01DX001 (ip), vehicle: water): 232 % of control and 267 % of control

Compound: O=[N+]([O-])c1ccc(/C=C2\c3ccccc3-c3nc4ccccc4nc32)cc1
- T/C [1]: 92 % of control
- T/C (dose: 300.0 mg/kg/injection, schedule: Q01DX001 (ip), vehicle: saline): 91 % of control

Compound: COC(=O)/C=C1\C(C(=O)OC)=Cc2ccccc2N1C
- T/C (dose: 100.0 mg/kg/injection, schedule: Q01DX009 (ip), vehicle: saline with Tween-80): 97 % of control
- T/C [12]: 98 % of control
- T/C (dose: 200.0 mg/kg/injection, schedule: Q01DX009 (ip), vehicle: saline with Tween-80): 91 % of control
- T/C [13]: 98 % of control
- T/C (dose: 400.0 mg/kg/injection, schedule: Q01DX009 (ip), vehicle: saline with Tween-80): 94 % of control
- T/C [14]: 96 % of control

Compound: COCc1c(COc2ccc(Cl)cc2)n(C)c2ccccc12
- T/C [15]: 101 % of control
- T/C [16]: 92 % of control
- T/C [17]: 99 % of control
